Measured values published in US12042493B2, “Pharmaceutical compounds for use in treating Huntington's disease” (ADEPTIO PHARMACEUTICALS LIMITED, priority 2018, dated 2024).
Entries after “also recorded” stand apart in the source; their conditions may differ.

Tests used:
[1] = system: R6/2 mouse model of Huntington's disease; assay: Survival rates in R6/2 mouse model of Huntington's disease; format: in vivo; details: for Number of mice alive at the end of the study / Survival Rate (%): male R6/2 mice
Procedure: The objective of this study was to investigate the efficacy of (+)-α-dihydrotetrabenazine in the R6/2 mouse model of Huntington's disease. The mice were treated with (+)-α-dihydrotetrabenazine ((+)-α-DHTBZ), tetrabenazine (TBZ) or vehicle starting at 4 weeks of age and continuing until 13 weeks of age.
In total, 38 male R6/2 mice and 9 wild type (WT) littermates were used in the study. Mice were dosed from 4 weeks of age until 13 weeks of age. During the course of the study, the body weight of the animals was measured twice-α-week for the whole study duration. At the end of the study, the mice were sacrificed and only tail samples were collected.
All animal experiments were performed as specified in the license authorized by the national Animal Experiment Board of Finland and according to the National Institutes of Health (Bethesda, MD, USA) guidelines for the care and use of laboratory animals. In total, 38 male R6/2 mice and 9 wild type (WT) littermates were used in the study. Only mice with normal plasma bile acid levels were used for the study.
Animals were grouped as follows: • Group 1: 9 male wild-type (WT) mice treated with vehicle (p.o.) from 4-13 weeks of age • Group 2: 9 male R6/2 mice treated with vehicle (p.o.) from 4-13 weeks of age • Group 3: 10 male R6/2 mice treated with (+)-α-DHTBZ (1.5 mg/kg, p.o.) from 4-13 weeks of age • Group 4: 10 male R6/2 mice treated with (+)-α-DHTBZ (3 mg/kg, p.o.) from 4-13 weeks of age • Group 5: 9 male R6/2 mice treated with tetrabenazine (1.5 mg/kg, p.o.) from 4-13 weeks of age
(+)-α-DHTBZ, TBZ and vehicle were administered each day (10 ml/kg, p.o., QD) at approximately the same time of the day for all the mice, starting at 9 a.m.-11 a.m., when the daily dosing was performed at least 1 hour before the tests.
The mice were monitored until end point or the fulfilment of the euthanasia criteria.
A one-tailed, N-1 Two Proportion Test was used to determine statistically significant differences in the survival rates between the treatment groups.

[2] = system: R6/2 mouse model of Huntington's disease; assay: Tremor evaluation in the Tremor Monitor chamber, R6/2 mice; format: in vivo; details: 3.0 mg/kg p.o., pairwise t-test vs R6/2 Vehicle group, FIG. 3
Procedure: The objective of this study was to investigate the efficacy of (+)-α-dihydrotetrabenazine in the R6/2 mouse model of Huntington's disease. The mice were treated with (+)-α-dihydrotetrabenazine ((+)-α-DHTBZ), tetrabenazine (TBZ) or vehicle starting at 4 weeks of age and continuing until 13 weeks of age. […] The extent of tremor of the mice was evaluated at 7 and 13 weeks of age. […] The mice were placed inside a Tremor Monitor (San Diego Instruments, SDI) chamber for a 10 minute acclimatisation period, following which the tremor activity of the mice was measured for approximately 8 minutes. The recorded frequencies (1-64 hertz) of activity and the number of tremor events were captured electronically. Data were analysed by the Tremor Monitor software (San Diego Instruments) in a two part process. Using a Fast Fourier Transform (FFT), an output was provided showing the percentage of activity (energy) recorded at each frequency. […]

[3] = 1.5 mg/kg p.o. QD from 4-13 weeks of age
[4] = 3.0 mg/kg p.o. QD from 4-13 weeks of age

| SMILES | Survival rate / lifespan of R6/2 mice versus vehicle or tetrabenazine (in words) ([1]; R6/2 mice, at both 1.5 mg/kg and 3.0 mg/kg, listed as (+)-α-dihydrotetrabenazine) | Number of mice alive at the end of the study [1, 3] | Survival Rate (%) [1, 3] [%] | Number of mice alive at the end of the study [1, 4] | Survival Rate (%) [1, 4] [%] | Tremor Power Spectral Density at 12 Hz [2] |
| --- | --- | --- | --- | --- | --- | --- |
| COc1cc2c(cc1OC)[C@H]1C[C@@H](O)[C@H](CC(C)C)CN1CC2 [(+)-α-DHTBZ, (2R, 3R, 11bR)-3-isobutul-9,10-dimethox-1,3,4,6,7,11b-hexahydro-2H-pyrido[2,1,a]isoquinolin-2-ol] | significantly longer than the survival rates of the R6/2 mice treated with vehicle or tetrabenazine; also recorded: prolonged lifespan compared to untreated control R6/2 mice and R6/2 mice that had been treated with tetrabenazine | 10 | 100 | 10 | 100 | significantly different compared to the R6/2 Vehicle group |
| COc1cc2c(cc1OC)C1CC(=O)C(CC(C)C)CN1CC2 (racemic) [TBZ, 1,3,4,6,7,11b-hexahydro-9,10-dimethoxy-3-(2-methylpropyl)-2H-benzo(a)quinolizin-2-one, reference compound] |  | 7 | 77.8 |  |  |  |
